What was measured:
HiBit-BRM fusion protein = target: T1, HiBit-BRM fusion protein (Homo sapiens, UniProt P51531); assay: HiBiT-BRM cell-based degradation assay (Nano-Glo HiBiT Lytic Detection, 24 h); settings: stable HeLa cell line expressing HiBiT-BRM; for DC50: read-out: BRM HiBit Degradation IC50
T1 construct: expressed in transfected cells
How it was run: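 A stable HeLa line expressing HiBiT-BRM was treated for 24 h with compound in a 10-point, 3-fold series (30 μM final top dose). Remaining HiBiT-BRM was read by lytic LgBiT complementation luminescence. % degradation was normalised to DMSO (high control) and 2 μM reference BRM/BRG1 degrader (low control).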

[1] = target: T2, HiBit-BRG1 fusion protein (Homo sapiens, UniProt P51532); assay: HiBiT-BRG1 cell-based degradation assay (Nano-Glo HiBiT Lytic Detection, 24 h); settings: stable HeLa cell line expressing HiBit-BRG1 and LgBit; for Dmax: read-out: BRG1 HiBit Degradation Maximum (%); for DC50: read-out: BRMG1 HiBit Degradation IC50
T2 construct: expressed in transfected cells
T2 sequence (P51532 whole entry, the tested form may be a part): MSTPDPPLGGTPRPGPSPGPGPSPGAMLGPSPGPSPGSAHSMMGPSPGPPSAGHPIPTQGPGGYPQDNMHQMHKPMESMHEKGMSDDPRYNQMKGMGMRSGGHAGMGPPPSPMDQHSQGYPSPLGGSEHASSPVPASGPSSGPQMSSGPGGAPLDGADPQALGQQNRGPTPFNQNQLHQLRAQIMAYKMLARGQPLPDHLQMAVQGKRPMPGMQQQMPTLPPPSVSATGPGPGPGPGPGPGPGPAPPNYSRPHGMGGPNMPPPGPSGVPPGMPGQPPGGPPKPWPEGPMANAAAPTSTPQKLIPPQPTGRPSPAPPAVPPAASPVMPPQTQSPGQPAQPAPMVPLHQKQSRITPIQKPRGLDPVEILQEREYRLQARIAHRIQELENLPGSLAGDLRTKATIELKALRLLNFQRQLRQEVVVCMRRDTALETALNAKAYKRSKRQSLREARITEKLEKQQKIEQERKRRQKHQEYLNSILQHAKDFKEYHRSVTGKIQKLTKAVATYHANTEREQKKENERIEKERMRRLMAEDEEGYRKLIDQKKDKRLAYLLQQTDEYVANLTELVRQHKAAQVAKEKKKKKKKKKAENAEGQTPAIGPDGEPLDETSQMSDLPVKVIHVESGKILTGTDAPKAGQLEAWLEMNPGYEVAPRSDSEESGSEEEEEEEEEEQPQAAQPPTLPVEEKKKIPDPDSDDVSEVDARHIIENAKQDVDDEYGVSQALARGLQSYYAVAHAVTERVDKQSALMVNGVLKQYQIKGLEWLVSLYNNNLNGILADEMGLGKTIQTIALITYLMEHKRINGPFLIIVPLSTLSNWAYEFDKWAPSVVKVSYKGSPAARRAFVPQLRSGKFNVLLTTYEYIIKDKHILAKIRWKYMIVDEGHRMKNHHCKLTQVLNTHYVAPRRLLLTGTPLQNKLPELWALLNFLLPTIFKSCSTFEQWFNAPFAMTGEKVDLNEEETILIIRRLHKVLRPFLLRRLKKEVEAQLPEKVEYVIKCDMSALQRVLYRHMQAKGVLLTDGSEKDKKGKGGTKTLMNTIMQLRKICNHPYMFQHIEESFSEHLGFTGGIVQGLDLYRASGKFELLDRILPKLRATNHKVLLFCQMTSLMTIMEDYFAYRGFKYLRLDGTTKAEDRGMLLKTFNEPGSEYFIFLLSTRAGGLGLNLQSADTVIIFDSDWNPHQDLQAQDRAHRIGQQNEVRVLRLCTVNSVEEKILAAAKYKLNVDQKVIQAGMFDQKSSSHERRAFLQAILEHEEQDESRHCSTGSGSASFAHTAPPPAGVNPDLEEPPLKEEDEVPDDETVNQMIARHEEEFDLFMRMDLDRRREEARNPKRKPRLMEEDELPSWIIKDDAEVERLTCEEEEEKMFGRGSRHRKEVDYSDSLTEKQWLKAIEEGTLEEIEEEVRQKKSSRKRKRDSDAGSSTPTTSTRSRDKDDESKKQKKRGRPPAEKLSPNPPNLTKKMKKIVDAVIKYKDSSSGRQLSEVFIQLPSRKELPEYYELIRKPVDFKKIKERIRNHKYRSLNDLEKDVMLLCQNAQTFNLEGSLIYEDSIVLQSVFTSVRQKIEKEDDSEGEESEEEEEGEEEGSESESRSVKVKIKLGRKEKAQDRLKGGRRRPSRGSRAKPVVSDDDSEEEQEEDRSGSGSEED
How it was run: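 HeLa cells stably expressing HiBit-BRG1 and LgBit, treated 24 h with 3-fold dilutions (10 points, duplicate, 30 μM final top dose). Luminescence read after Nano-Glo HiBiT lytic reagent; % degradation scaled between DMSO (high) and 2 μM reference BRM/BRG1 degrader (low control).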

T1 sequence (P51531 whole entry, the tested form may be a part): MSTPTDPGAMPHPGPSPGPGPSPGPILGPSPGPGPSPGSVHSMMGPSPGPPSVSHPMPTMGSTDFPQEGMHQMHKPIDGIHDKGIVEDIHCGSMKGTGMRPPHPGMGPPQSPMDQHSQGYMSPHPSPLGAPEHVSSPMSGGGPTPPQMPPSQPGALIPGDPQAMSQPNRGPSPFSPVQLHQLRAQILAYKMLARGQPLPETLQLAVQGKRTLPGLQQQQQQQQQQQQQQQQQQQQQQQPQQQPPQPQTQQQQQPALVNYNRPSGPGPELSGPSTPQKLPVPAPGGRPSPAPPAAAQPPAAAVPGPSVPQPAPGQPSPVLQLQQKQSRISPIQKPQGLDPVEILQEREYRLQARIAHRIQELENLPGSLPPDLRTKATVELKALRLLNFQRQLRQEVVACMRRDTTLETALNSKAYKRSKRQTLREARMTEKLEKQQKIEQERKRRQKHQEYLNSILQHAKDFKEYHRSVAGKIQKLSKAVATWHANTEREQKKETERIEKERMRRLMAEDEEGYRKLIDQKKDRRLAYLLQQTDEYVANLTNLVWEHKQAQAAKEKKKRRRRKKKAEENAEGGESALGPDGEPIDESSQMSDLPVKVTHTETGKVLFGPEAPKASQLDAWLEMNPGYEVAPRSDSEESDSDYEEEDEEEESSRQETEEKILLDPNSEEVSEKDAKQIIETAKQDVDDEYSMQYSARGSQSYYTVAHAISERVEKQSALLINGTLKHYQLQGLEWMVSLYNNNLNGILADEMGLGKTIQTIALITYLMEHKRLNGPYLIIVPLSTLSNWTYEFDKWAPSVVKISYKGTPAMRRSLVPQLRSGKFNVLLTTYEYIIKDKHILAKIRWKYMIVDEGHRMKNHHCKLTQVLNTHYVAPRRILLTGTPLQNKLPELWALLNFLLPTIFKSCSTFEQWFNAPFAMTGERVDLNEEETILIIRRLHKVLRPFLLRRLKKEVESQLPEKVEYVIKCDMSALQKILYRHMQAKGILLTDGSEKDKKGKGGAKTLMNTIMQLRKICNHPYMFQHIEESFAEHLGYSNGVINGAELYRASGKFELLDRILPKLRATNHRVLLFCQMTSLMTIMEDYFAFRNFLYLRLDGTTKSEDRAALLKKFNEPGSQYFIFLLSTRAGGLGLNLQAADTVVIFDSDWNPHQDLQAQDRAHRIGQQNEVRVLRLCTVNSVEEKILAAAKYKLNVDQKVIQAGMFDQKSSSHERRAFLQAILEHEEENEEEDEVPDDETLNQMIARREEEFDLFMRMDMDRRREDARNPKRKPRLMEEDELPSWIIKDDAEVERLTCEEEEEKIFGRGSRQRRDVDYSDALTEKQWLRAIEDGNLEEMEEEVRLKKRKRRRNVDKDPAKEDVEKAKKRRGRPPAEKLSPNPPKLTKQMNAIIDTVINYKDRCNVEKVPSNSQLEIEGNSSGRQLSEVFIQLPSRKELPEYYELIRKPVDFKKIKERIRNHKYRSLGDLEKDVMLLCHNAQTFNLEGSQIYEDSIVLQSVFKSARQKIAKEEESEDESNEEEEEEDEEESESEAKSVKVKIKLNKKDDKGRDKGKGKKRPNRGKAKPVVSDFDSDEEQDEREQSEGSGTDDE

SMILES: Cc1ncsc1-c1ccc([C@H](C)NC(=O)[C@@H]2C[C@@H](O)CN2C(=O)[C@@H](c2cc(-c3cnc(N4C[C@H]5C[C@@H]4C[C@@H]5c4cc5cc(-c6ccccc6O)nnc5s4)nc3)no2)C(C)C)cc1 [Compound 22, (2S,4R)-4-hydroxy-1-((R)-2-(3-(2-((1R,4S,5S)-5-(3-(2-hydroxyphenyl)thieno[2,3-c]pyridazin-6-yl)-2-azabicyclo[2.2.1]heptan-2-yl)pyrimidin-5-yl)isoxazol-5-yl)-3-methylbutanoyl)-N-((S)-1-(4-(4-methylthiazol-5-yl)phenyl)ethyl)pyrrolidine-2-carboxamide]
- BRM HiBit Degradation Maximum (%) (HiBit-BRM fusion protein): A (“A” indicates maximum degradation ≥75%)
- DC50 (HiBit-BRM fusion protein): < 10 nM
- Dmax [1]: < 50%
- DC50 [1]: > 1000 nM

SMILES: Cc1nc(N2CCC(c3sc4nnc(-c5ccccc5O)cc4c3C)CC2)ccc1-c1noc([C@H](C(=O)N2C[C@H](O)C[C@H]2C(=O)N[C@@H](C)c2ccc(-c3scnc3C)cc2)C(C)C)c1C [Compound 92, (2S,4R)-4-hydroxy-1-((R)-2-(3-(6-(4-(3-(2-hydroxyphenyl)-5-methylthieno[2,3-c]pyridazin-6-yl)piperidin-1-yl)-2-methylpyridin-3-yl)-4-methylisoxazol-5-yl)-3-methylbutanoyl)-N-((S)-1-(4-(4-methylthiazol-5-yl)phenyl)ethyl)pyrrolidine-2-carboxamide]
- BRM HiBit Degradation Maximum (%) (HiBit-BRM fusion protein): A (“A” indicates maximum degradation ≥75%)
- DC50 (HiBit-BRM fusion protein): < 10 nM
- Dmax [1]: > 75%
- DC50 [1]: > 10 nM

SMILES: Cc1ncsc1-c1ccc([C@H](C)NC(=O)[C@@H]2C[C@@H](O)CN2C(=O)[C@@H](c2cc(N3CC4(CC(c5cc6nnc(-c7ccccc7O)cc6s5)C4)C3)no2)C(C)C)cc1 [Compound 69, (2S,4R)-4-hydroxy-1-((R)-2-(3-(6-(3-(2-hydroxyphenyl)thieno[3,2-c]pyridazin-6-yl)-2-azaspiro[3.3]heptan-2-yl)isoxazol-5-yl)-3-methylbutanoyl)-N-((S)-1-(4-(4-methylthiazol-5-yl)phenyl)ethyl)pyrrolidine-2-carboxamide]
- BRM HiBit Degradation Maximum (%) (HiBit-BRM fusion protein): A (“A” indicates maximum degradation ≥75%)
- DC50 (HiBit-BRM fusion protein): < 10 nM
- Dmax [1]: > 75%
- DC50 [1]: < 10 nM

SMILES: Cc1ncsc1-c1ccc([C@H](C)NC(=O)[C@@H]2C[C@@H](O)CN2C(=O)[C@@H](c2cc(-c3cnc(N4C[C@@H]5[C@H](C4)[C@H]5c4sc5nnc(-c6ccccc6O)cc5c4C)nc3)no2)C(C)C)cc1 (stereo in doubt) [Compound 40, (2S,4R)-4-hydroxy-1-((R)-2-(3-(2-((1R,5R)-6-(3-(2-hydroxyphenyl)-5-methylthieno[2,3-c]pyridazin-6-yl)-3-azabicyclo[3.1.0]hexan-3-yl)pyrimidin-5-yl)isoxazol-5-yl)-3-methylbutanoyl)-N-((S)-1-(4-(4-methylthiazol-5-yl)phenyl)ethyl)pyrrolidine-2-carboxamide]
- BRM HiBit Degradation Maximum (%) (HiBit-BRM fusion protein): A (“A” indicates maximum degradation ≥75%)
- DC50 (HiBit-BRM fusion protein): < 10 nM
- Dmax [1]: < 50%
- DC50 [1]: > 100 nM

SMILES: Cc1nc(N2CCC(c3sc4nnc(-c5ccccc5O)cc4c3C)CC2)ccc1-c1cc([C@H](C(=O)N2C[C@H](O)C[C@H]2C(=O)N[C@@H](C)c2ccc(-c3scnc3C)cc2)C(C)C)on1 [Compound 42, (2S,4R)-4-hydroxy-1-((R)-2-(3-(6-(4-(3-(2-hydroxyphenyl)-5-methylthieno[2,3-c]pyridazin-6-yl)piperidin-1-yl)-2-methylpyridin-3-yl)isoxazol-5-yl)-3-methylbutanoyl)-N-((S)-1-(4-(4-methylthiazol-5-yl)phenyl)ethyl)pyrrolidine-2-carboxamide]
- BRM HiBit Degradation Maximum (%) (HiBit-BRM fusion protein): A (“A” indicates maximum degradation ≥75%)
- DC50 (HiBit-BRM fusion protein): < 10 nM
- Dmax [1]: > 50%
- DC50 [1]: > 10 nM

SMILES: Cc1ncsc1-c1ccc([C@H](C)NC(=O)[C@@H]2C[C@@H](O)CN2C(=O)[C@@H](c2cc(-c3cnc(N4CCC(c5sc6nnc(-c7ccccc7O)cc6c5C)CC4)cn3)no2)C(C)C)cc1 [Compound 28, (2S,4R)-4-hydroxy-1-((R)-2-(3-(5-(4-(3-(2-hydroxyphenyl)-5-methylthieno[2,3-c]pyridazin-6-yl)piperidin-1-yl)pyrazin-2-yl)isoxazol-5-yl)-3-methylbutanoyl)-N-((S)-1-(4-(4-methylthiazol-5-yl)phenyl)ethyl)pyrrolidine-2-carboxamide]
- BRM HiBit Degradation Maximum (%) (HiBit-BRM fusion protein): A (“A” indicates maximum degradation ≥75%)
- DC50 (HiBit-BRM fusion protein): < 10 nM
- Dmax [1]: < 50%
- DC50 [1]: > 1000 nM

SMILES: Cc1ncsc1-c1ccc([C@H](C)NC(=O)[C@@H]2C[C@@H](O)CN2C(=O)[C@@H](c2cc(N3CCC4(CC3)CC(c3cc5cc(-c6ccccc6O)nnc5s3)C4)no2)C(C)C)cc1 [Compound 98, (2S,4R)-4-hydroxy-1-((R)-2-(3-(2-(3-(2-hydroxyphenyl)thieno[2,3-c]pyridazin-6-yl)-7-azaspiro[3.5]nonan-7-yl)isoxazol-5-yl)-3-methylbutanoyl)-N-((S)-1-(4-(4-methylthiazol-5-yl)phenyl)ethyl)pyrrolidine-2-carboxamide]
- BRM HiBit Degradation Maximum (%) (HiBit-BRM fusion protein): A (“A” indicates maximum degradation ≥75%)
- DC50 (HiBit-BRM fusion protein): > 10 nM
- Dmax [1]: > 75%
- DC50 [1]: > 100 nM

SMILES: Cc1ncsc1-c1ccc([C@H](C)NC(=O)[C@@H]2C[C@@H](O)CN2C(=O)[C@@H](c2cc(N3CC4(CC(c5sc6nnc(-c7ccccc7O)cc6c5C)C4)C3)no2)C(C)C)cc1 [Compound 23, (2S,4R)-4-hydroxy-1-((R)-2-(3-(6-(3-(2-hydroxyphenyl)-5-methylthieno[2,3-c]pyridazin-6-yl)-2-azaspiro[3.3]heptan-2-yl)isoxazol-5-yl)-3-methylbutanoyl)-N-((S)-1-(4-(4-methylthiazol-5-yl)phenyl)ethyl)pyrrolidine-2-carboxamide]
- BRM HiBit Degradation Maximum (%) (HiBit-BRM fusion protein): A (“A” indicates maximum degradation ≥75%)
- DC50 (HiBit-BRM fusion protein): < 10 nM
- Dmax [1]: < 50%
- DC50 [1]: > 1000 nM

SMILES: Cc1ncsc1-c1ccc([C@H](C)NC(=O)[C@@H]2C[C@@H](O)CN2C(=O)[C@@H](c2cc(-c3ccc(N4CCC(c5sc6nnc(-c7ccccc7O)cc6c5C)CC4)cc3F)no2)C(C)C)cc1 [Compound 4, (2S,4R)-1-((R)-2-(3-(2-fluoro-4-(4-(3-(2-hydroxyphenyl)-5-methylthieno[2,3-c]pyridazin-6-yl)piperidin-1-yl)phenyl)isoxazol-5-yl)-3-methylbutanoyl)-4-hydroxy-N-((S)-1-(4-(4-methylthiazol-5-yl)phenyl)ethyl)pyrrolidine-2-carboxamide]
- BRM HiBit Degradation Maximum (%) (HiBit-BRM fusion protein): A (“A” indicates maximum degradation ≥75%)
- DC50 (HiBit-BRM fusion protein): < 10 nM
- Dmax [1]: < 50%
- DC50 [1]: > 1000 nM

SMILES: Cc1ncsc1-c1ccc([C@H](C)NC(=O)[C@@H]2C[C@@H](O)CN2C(=O)[C@@H](c2cc(-c3cnc(N4CCC(c5sc6nnc(-c7ccccc7O)cc6c5C5CC5)CC4)nc3)no2)C(C)C)cc1 [Compound 84, (2S,4R)-1-((R)-2-(3-(2-(4-(5-cyclopropyl-3-(2-hydroxyphenyl)thieno[2,3-c]pyridazin-6-yl)piperidin-1-yl)pyrimidin-5-yl)isoxazol-5-yl)-3-methylbutanoyl)-4-hydroxy-N-((S)-1-(4-(4-methylthiazol-5-yl)phenyl)ethyl)pyrrolidine-2-carboxamide]
- BRM HiBit Degradation Maximum (%) (HiBit-BRM fusion protein): B (“B” indicates maximum degradation ≥50%)
- DC50 (HiBit-BRM fusion protein): > 10 nM
- Dmax [1]: < 50%

SMILES: Cc1ncsc1-c1ccc([C@H](C)NC(=O)[C@@H]2C[C@@H](O)CN2C(=O)[C@@H](c2cc(-c3cnc(N4CC[C@@H](c5sc6nnc(-c7ccccc7O)cc6c5C)C[C@H]4C)nc3)no2)C(C)C)cc1 [Compound 30, (2S,4R)-4-hydroxy-1-((R)-2-(3-(2-((2R,4R)-4-(3-(2-hydroxyphenyl)-5-methylthieno[2,3-c]pyridazin-6-yl)-2-methylpiperidin-1-yl)pyrimidin-5-yl)isoxazol-5-yl)-3-methylbutanoyl)-N-((S)-1-(4-(4-methylthiazol-5-yl)phenyl)ethyl)pyrrolidine-2-carboxamide]
- BRM HiBit Degradation Maximum (%) (HiBit-BRM fusion protein): A (“A” indicates maximum degradation ≥75%)
- DC50 (HiBit-BRM fusion protein): < 10 nM
- Dmax [1]: < 50%
- DC50 [1]: > 1000 nM

SMILES: Cc1ncsc1-c1ccc([C@H](C)NC(=O)[C@@H]2C[C@@H](O)CN2C(=O)[C@@H](c2cc(-c3ccc(N4CCC(c5sc6nnc(-c7ccccc7O)cc6c5C)CC4)c(F)c3)no2)C(C)C)cc1 [Compound 103, (2S,4R)-1-((R)-2-(3-(3-fluoro-4-(4-(3-(2-hydroxyphenyl)-5-methylthieno[2,3-c]pyridazin-6-yl)piperidin-1-yl)phenyl)isoxazol-5-yl)-3-methylbutanoyl)-4-hydroxy-N-((S)-1-(4-(4-methylthiazol-5-yl)phenyl)ethyl)pyrrolidine-2-carboxamide]
- BRM HiBit Degradation Maximum (%) (HiBit-BRM fusion protein): A (“A” indicates maximum degradation ≥75%)
- DC50 (HiBit-BRM fusion protein): < 10 nM
- Dmax [1]: < 50%

SMILES: Cc1ncsc1-c1ccc([C@H](C)NC(=O)[C@@H]2C[C@@H](O)CN2C(=O)[C@@H](c2cc(-c3cnc(N4CCN(c5sc6nnc(-c7ccccc7O)cc6c5C)CC4)nc3)no2)C(C)C)cc1 [Compound 53, (2S,4R)-4-hydroxy-1-((R)-2-(3-(2-(4-(3-(2-hydroxyphenyl)-5-methylthieno[2,3-c]pyridazin-6-yl)piperazin-1-yl)pyrimidin-5-yl)isoxazol-5-yl)-3-methylbutanoyl)-N-((S)-1-(4-(4-methylthiazol-5-yl)phenyl)ethyl)pyrrolidine-2-carboxamide]
- BRM HiBit Degradation Maximum (%) (HiBit-BRM fusion protein): A (“A” indicates maximum degradation ≥75%)
- DC50 (HiBit-BRM fusion protein): < 10 nM
- Dmax [1]: > 75%
- DC50 [1]: > 10 nM

From patent publication US20250304596A1, “PYRAZINE DERIVATIVES AND USES THEREOF” (FOGHORN THERAPEUTICS INC., priority 2022, published 2025)
